Reference: ChEMBL document CHEMBL2057103, “Synthesis and biological activity of novel bifunctional isoxazolidinyl polycyclic aromatic hydrocarbons” (Bioorg Med Chem, 2012)
Activity calls are given as the source filed them. No cut-off for these calls is given here.

What was measured:
Nucleic Acid [1] = test: Binding affinity to Escherichia coli phiX174 RF1 DNA poly-d(G-C)2 fragment assessed as DNA unwinding in presence of topoisomerase 1 after 30 mins by electrophoresis; assay type: nucleic-acid assay
A549 = test: Cytotoxicity against human A549 cells after 20 hrs by SRB assay; assay type: functional, cell-based; settings: A549, 20 h
U-937 = test: Cytotoxicity against human U937 cells after 20 hrs by MTS assay; assay type: functional, cell-based; settings: U-937, 20 h
HeLa = test: Cytotoxicity against human HeLa cells after 20 hrs by MTS assay; assay type: functional, cell-based
MOLT-3 = test: Cytotoxicity against human MOLT3 cells after 20 hrs by MTS assay; assay type: functional, cell-based; settings: MOLT-3, 20 h
Vero = test: Cytotoxicity against african green monkey Vero cells after 20 hrs by MTS assay; assay type: cell-based; settings: Chlorocebus sabaeus
THP-1 = test: Cytotoxicity against human THP1 cells after 20 hrs by MTS assay; assay type: functional, cell-based; settings: THP-1, 20 h
Nucleic Acid [2] = test: Binding affinity to Escherichia coli phiX174 RF1 DNA poly GC fragment assessed as DNA unwinding in presence of topoisomerase 1 after 30 mins by electrophoresis; assay type: nucleic-acid assay

Activity (Nucleic Acid [1]) | Activity (Nucleic Acid [2]) | Compound | IC50 (A549) | IC50 (U-937) | IC50 (HeLa) | IC50 (MOLT-3) | IC50 (Vero) | IC50 (THP-1)
Active |  | OC[C@@H]1C[C@H](c2ccc3ccc4cccc5ccc2c3c45)N(Cc2ccccc2O)O1 |  |  |  |  |  | 
 |  | OC[C@@H]1C[C@H](c2ccc3ccc4cccc5ccc2c3c45)N(Cc2ccccc2O)O1 (racemic) [listing 1 of 2 here] | 2 µM | 32 µM | 4 µM | 5 µM | 37 µM | 7 µM
 |  | OC[C@H]1C[C@H](c2ccc3ccc4cccc5ccc2c3c45)N(Cc2ccccc2O)O1 (racemic) | 9 µM | 88 µM | 11 µM | 13 µM | 103 µM | 15 µM
 | Active | OC[C@@H]1C[C@H](c2ccc3ccc4cccc5ccc2c3c45)N(Cc2ccccc2O)O1 (racemic) [listing 2 of 2 here] |  |  |  |  |  | 
